In publication PMC7096405, “Field evaluation of sex pheromones and binding specificity of pheromone binding protein 4 in Tryporyza intacta (Lepidoptera: Crambidae)” (Scientific Reports, 2020):

Target: TintPBP4 (pheromone binding protein 4)
Assay: fluorescence competitive binding assay, displacement of 1-NPN
Design: species or system Tryporyza intacta

Row | Ki | SMILES
1 | 2970 nM | CCCC/C=C/CCCCCCCCCC=O [compound 1, E11-16: Ald]
2 | 2510 nM | CCCC/C=C\CCCCCCCCCC=O [compound 2, Z11-16: Ald]
